Values quoted from earlier work as cited in patent US20060222695A1, “Deoxycholic acid liposome-based dermatological topical preparation” (priority 2005, published 2006).

System: cell cultures and tissue specimen
Conditions: similar to the effects of laboratory detergents

C[C@H](CCC(=O)O)[C@H]1CC[C@H]2[C@@H]3CC[C@@H]4C[C@H](O)CC[C@]4(C)[C@H]3C[C@H](O)[C@]12C [Deoxycholic acid]
effect on cells and fat tissue: loss of cell viability, cell membrane lysis and disruption of fat architecture
